Assay results: patent US8247211B2, “Glycopeptide antibiotics” (American Cyanamid Company, priority 2001, dated 2012)
In brackets after ≈: the same amount, converted by molar mass.

Key:
[1] = test system: Staphylococcus aureus-SMITH (GC 4543); assay: Acute lethal infection in mice (ED50); assay type: in vivo; conditions: female CD-1 mice, intraperitoneal challenge, intravenous dose 30 min. after infection, 7 day survival ratios
Procedure, shortened: (§1)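 Bacteria suspended in Trypticase Soy Broth or hog gastric mucin are injected intraperitoneally into female CD-1 mice at a dose killing untreated animals within 24-48 hr. Thirty minutes later, test agent is administered intravenously. Survival at day 7 is scored.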

[2] = test system: Enterococcus faecalis (GC 2246), vancomycin resistant strain; assay: Acute lethal infection in mice (ED50); assay type: in vivo; conditions: female CD-1 mice, intraperitoneal challenge, intravenous dose 30 min. after infection, 7 day survival ratios
Procedure, shortened: as §1

Staphylococcus sp. = assay: In vitro antibacterial evaluation: minimum inhibitory concentration (MIC), broth dilution method; assay type: cell-based; conditions: for MIC Staphylococcus haemolyticus (GC 4546): strain GC 4546; for MIC Coagulase Negative Staphylococcus (GC 4547): strain GC 4547; for MIC Coagulase Negative Staphylococcus (GC 4548): strain GC 4548; for MIC Coagulase Negative Staphylococcus (GC 4549): strain GC 4549; for MIC Coagulase Negative Staphylococcus (GC 4551): strain GC 4551; for MIC Coagulase Negative Staphylococcus (ID-3941): strain ID-3941
Procedure, shortened: (§2)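 Susceptibility determined by NCCLS-recommended broth dilution (M7-A2), Muller-Hinton II […]. Concentration span 64-0.06 μg/mL, inoculum 5×10^5 CFU/mL. Isolates include strains resistant to methicillin, penicillin and/or vancomycin.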

Escherichia coli = assay: as above; assay type: cell-based
Procedure, shortened: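 Test strains, among them recent clinical isolates carrying methicillin, penicillin and/or vancomycin resistance, were inoculated at 5×10^5 CFU/mL. A broth dilution series spanning 64-0.06 μg/mL in Muller-Hinton II […] (NCCLS M7-A2) defined the MIC as the lowest growth-inhibiting concentration.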

Enterococcus sp. = assay: as above; assay type: cell-based
Procedure, shortened: as §2

Streptococcus sp. = assay: as above; assay type: cell-based
Procedure, shortened: as §2

[3] = strain GC 4543, 18 hours at 35° C.
[4] = broth dilution, 18 hours at 35° C.
[5] = broth dilution, 5×10^5 CFU/mL, 18 hours at 35° C.

Structure (SMILES): CCCC(CCC)C(=O)OCC1OC(OC2C(CO)OC(Oc3ccc(CC4NC(=O)C(C(C)c5ccccc5)NC(=O)CNC(=O)C(CO)NC(=O)C(C(O)C5CNC(=N)N5C5OC(CO)C(O)C(O)C5O)NC(=O)C(C(O)C5CNC(=N)N5)NC4=O)cc3)C(O)C2O)C(O)C(O)C1O (stereo not drawn) [Example 99c, Cyclo[glycyl-β-methylphenylalanyl-O-[4-O-[6-O-(2-propylpentanoyl)hexopyranosyl]-hexopyranosyl]tyrosyl-3-(2-iminoimidazolidin-4-yl)seryl-3-(3-hexopyranosyl-2-iminoimidazolidin-4-yl)serylseryl]]
- median effective dose (ED50), Staphylococcus aureus-SMITH (GC 4543) [1]: 0.52 mg/kg
- median effective dose (ED50), Enterococcus faecalis (GC 2246) [2]: 4.3 mg/kg
- MIC Staphylococcus aureus (ATCC 29213) (Staphylococcus sp.; strain ATCC 29213): 1 µg/mL (≈ 0.703 µM)
- MIC Staphylococcus aureus (GC 1131) (Staphylococcus sp.; strain GC 1131): 2 µg/mL (≈ 1.41 µM)
- MIC Staphylococcus aureus (GC 4541) (Staphylococcus sp.; strain GC 4541): 2 µg/mL (≈ 1.41 µM)
- MIC Staphylococcus aureus (GC 4542) (Staphylococcus sp.; strain GC 4542): 1 µg/mL (≈ 0.703 µM)
- MIC Staphylococcus aureus-SMITH (GC 4543) (Staphylococcus sp.; [3]): 1 µg/mL (≈ 0.703 µM)
- MIC Staphylococcus aureus-SMITH (GC 4543) (Staphylococcus sp.; strain GC 4543, broth dilution, 18 hours at 35° C.): 1 µg/mL (≈ 0.703 µM)
- MIC Staphylococcus aureus (GC 4544) (Staphylococcus sp.; strain GC 4544): 2 µg/mL (≈ 1.41 µM)
- MIC Staphylococcus aureus (GC 4545) (Staphylococcus sp.; strain GC 4545): 1 µg/mL (≈ 0.703 µM)
- MIC Staphylococcus haemolyticus (GC 4546) (Staphylococcus sp.): 1 µg/mL (≈ 0.703 µM)
- MIC Staphylococcus haemolyticus (GC 4546) (Staphylococcus sp.; [4]): 1 µg/mL (≈ 0.703 µM)
- MIC Coagulase Negative Staphylococcus (GC 4547) (Staphylococcus sp.): 1 µg/mL (≈ 0.703 µM)
- MIC Coagulase Negative Staphylococcus (GC 4547) (Staphylococcus sp.; [4]): 1 µg/mL (≈ 0.703 µM)
- MIC Coagulase Negative Staphylococcus (GC 4548) (Staphylococcus sp.): 1 µg/mL (≈ 0.703 µM)
- MIC Coagulase Negative Staphylococcus (GC 4548) (Staphylococcus sp.; [4]): 1 µg/mL (≈ 0.703 µM)
- MIC Coagulase Negative Staphylococcus (GC 4549) (Staphylococcus sp.): 1 µg/mL (≈ 0.703 µM)
- MIC Coagulase Negative Staphylococcus (GC 4549) (Staphylococcus sp.; [4]): 1 µg/mL (≈ 0.703 µM)
- MIC Coagulase Negative Staphylococcus (GC 4551) (Staphylococcus sp.): 2 µg/mL (≈ 1.41 µM)
- MIC Coagulase Negative Staphylococcus (GC 4551) (Staphylococcus sp.; [4]): 2 µg/mL (≈ 1.41 µM)
- MIC Coagulase Negative Staphylococcus (ID-3941) (Staphylococcus sp.): 1 µg/mL (≈ 0.703 µM)
- MIC Coagulase Negative Staphylococcus (ID-3941) (Staphylococcus sp.; [4]): 1 µg/mL (≈ 0.703 µM)
- MIC Escherichia coli (ATCC 25922) (Escherichia coli; 5×10^5 CFU/mL, 18 hours at 35° C.): 64 µg/mL (≈ 45 µM)
- MIC Enterococccus avium (GC 4558) (Enterococcus sp.; [5]): 4 µg/mL (≈ 2.81 µM)
- MIC Enterococccus faecalis (ATCC 29212) (Enterococcus sp.; [5]): 4 µg/mL (≈ 2.81 µM)
- MIC Enterococccus faecalis (GC 4552) (Enterococcus sp.; [5]): 4 µg/mL (≈ 2.81 µM)
- MIC Enterococccus faecalis (GC 4553) (Enterococcus sp.; [5]): 4 µg/mL (≈ 2.81 µM)
- MIC Enterococccus faecalis (GC 4554) (Enterococcus sp.; [5]): 4 µg/mL (≈ 2.81 µM)
- MIC Enterococccus faecium (GC 2243) (Enterococcus sp.; [5]): 4 µg/mL (≈ 2.81 µM)
- MIC Enterococccus faecium (GC 4556) (Enterococcus sp.; [5]): 4 µg/mL (≈ 2.81 µM)
- MIC Enterococccus faecium (GC 4557) (Enterococcus sp.; [5]): 2 µg/mL (≈ 1.41 µM)
- MIC Enterococcus faecalis (GC 2242) (Enterococcus sp.; [5]): 4 µg/mL (≈ 2.81 µM)
- MIC Streptococcus agalactiae (GC 4564) (Streptococcus sp.; [5]): <0.5 µg/mL
- MIC Streptococcus pneumoniae (GC 4565) (Streptococcus sp.; [5]): <0.5 µg/mL
- MIC Streptococcus pyogenes (ID-3187) (Streptococcus sp.; [5]): <0.5 µg/mL

Structure (SMILES): CC(c1ccccc1)C1NC(=O)CNC(=O)C(CO)NC(=O)C(C(O)C2CNC(=N)N2C2OC(CO)C(O)C(O)C2O)NC(=O)C(C(O)C2CNC(=N)N2)NC(=O)C(Cc2ccc(OC3OC(CO)C(OC4OC(COC(=O)C(c5ccccc5)c5ccccc5)C(O)C(O)C4O)C(O)C3O)cc2)NC1=O (stereo not drawn) [Example 96c, Cyclo[glycyl-β-methylphenylalanyl-O-[4-O-[6-O-(diphenylacetyl)hexopyranosyl)hexopyranosyl]tyrosyl-3-(2-iminoimidazolidin-4-yl)seryl-3-(3-hexopyranosyl-2-iminoimidazolidin-4-yl)serylseryl]]
- median effective dose (ED50), Staphylococcus aureus-SMITH (GC 4543) [1]: 0.29 mg/kg
- median effective dose (ED50), Enterococcus faecalis (GC 2246) [2]: 5.2 mg/kg
- MIC Staphylococcus aureus (ATCC 29213) (Staphylococcus sp.; [4]): 1 µg/mL (≈ 0.671 µM)
- MIC Staphylococcus aureus (GC 1131) (Staphylococcus sp.; [4]): 0.5 µg/mL (≈ 0.336 µM)
- MIC Staphylococcus aureus (GC 4541) (Staphylococcus sp.; [4]): 0.5 µg/mL (≈ 0.336 µM)
- MIC Staphylococcus aureus (GC 4542) (Staphylococcus sp.; [4]): 1 µg/mL (≈ 0.671 µM)
- MIC Staphylococcus aureus (GC 4544) (Staphylococcus sp.; [4]): 1 µg/mL (≈ 0.671 µM)
- MIC Staphylococcus aureus (GC 4545) (Staphylococcus sp.; [4]): 0.5 µg/mL (≈ 0.336 µM)
- MIC Staphylococcus aureus-SMITH (GC 4543) (Staphylococcus sp.; [3]): 0.5 µg/mL (≈ 0.336 µM)
- MIC Staphylococcus haemolyticus (GC 4546) (Staphylococcus sp.): 0.5 µg/mL (≈ 0.336 µM)
- MIC Coagulase Negative Staphylococcus (GC 4547) (Staphylococcus sp.): 1 µg/mL (≈ 0.671 µM)
- MIC Coagulase Negative Staphylococcus (GC 4548) (Staphylococcus sp.): 0.25 µg/mL (≈ 0.168 µM)
- MIC Coagulase Negative Staphylococcus (GC 4549) (Staphylococcus sp.): 1 µg/mL (≈ 0.671 µM)
- MIC Coagulase Negative Staphylococcus (GC 4551) (Staphylococcus sp.): 1 µg/mL (≈ 0.671 µM)
- MIC Coagulase Negative Staphylococcus (ID-3941) (Staphylococcus sp.): 0.5 µg/mL (≈ 0.336 µM)
- MIC Staphylococcus aureus-SMITH (GC 4543) (Staphylococcus sp.; strain SMITH GC 4543, broth dilution, 18 hours at 35° C.): 0.5 µg/mL (≈ 0.336 µM)
- MIC Escherichia coli (ATCC 25922) (Escherichia coli; strain ATCC 25922): 64 µg/mL (≈ 43 µM)
- MIC Enterococcus faecalis (GC 2242) (Enterococcus sp.; Enterococcus faecalis (GC 2242), broth dilution, 18 hours at 35° C.): 1 µg/mL (≈ 0.671 µM)
- MIC Enterococcus faecalis (ATCC 29212) (Enterococcus sp.; strain ATCC 29212): 2 µg/mL (≈ 1.34 µM)
- MIC Enterococcus faecalis (GC 2242) (Enterococcus sp.; strain GC 2242): 1 µg/mL (≈ 0.671 µM)
- MIC Enterococcus faecium (GC 2243) (Enterococcus sp.; strain GC 2243): 2 µg/mL (≈ 1.34 µM)
- MIC Enterococcus faecalis (GC 4552) (Enterococcus sp.; strain GC 4552): 2 µg/mL (≈ 1.34 µM)
- MIC Enterococcus faecalis (GC 4553) (Enterococcus sp.; strain GC 4553): 2 µg/mL (≈ 1.34 µM)
- MIC Enterococcus faecalis (GC 4554) (Enterococcus sp.; strain GC 4554): 2 µg/mL (≈ 1.34 µM)
- MIC Enterococcus faecium (GC 4556) (Enterococcus sp.; strain GC 4556): 2 µg/mL (≈ 1.34 µM)
- MIC Enterococcus faecium (GC 4557) (Enterococcus sp.; strain GC 4557): 1 µg/mL (≈ 0.671 µM)
- MIC Enterococcus avium (GC 4558) (Enterococcus sp.; strain GC 4558): 2 µg/mL (≈ 1.34 µM)
- MIC Streptococcus agalactiae (GC 4564) (Streptococcus sp.; Streptococcus agalactiae (GC 4564), broth dilution, 18 hours at 35° C.): <0.06 µg/mL
- MIC Streptococcus pneumoniae (GC 4565) (Streptococcus sp.; Streptococcus pneumoniae (GC 4565), broth dilution, 18 hours at 35° C.): <0.06 µg/mL
- MIC Streptococcus pyogenes (ID-3187) (Streptococcus sp.; Streptococcus pyogenes (ID-3187), broth dilution, 18 hours at 35° C.): <0.06 µg/mL
- MIC Streptococcus agalactiae (GC 4564) (Streptococcus sp.; strain GC 4564): <0.06 µg/mL
- MIC Streptococcus pneumoniae (GC 4565) (Streptococcus sp.; strain GC 4565): <0.06 µg/mL
- MIC Streptococcus pyogenes (ID-3187) (Streptococcus sp.; strain ID-3187): <0.06 µg/mL
